These results are taken from patent US20260308158A1, “TARGETING RNAS ASSOCIATED WITH TAUOPATHIES WITH SMALL MOLECULES” (University of Florida Research Foundation, Incorporated, priority 2023, published 2026).

Each structure is given as a SMILES string. Like-named read-outs stand apart in the source and are kept apart here.

Data set [1] can be described thus: Plasma and brain exposure in mice. The settings on record: mouse, po, 100 mg/kg p.o., C57BL/6J mice. Type of data set: in vivo, C57BL/6J mouse. The procedure:
Quantitation of 2 in Mouse Plasma and Brain. Male C57BL/6J mice (n=3 per time point; 5-7 weeks) were orally administered with 2 (100 mg/kg) in a formulation of DMSO/Tween-80/H2O (5/5/90). After 2, 12, 24, and 48 h, mice were euthanized, and blood and brain were collected. Brains were immediately frozen. Blood was centrifuged to generate plasma and immediately frozen. On the day of analysis, brains were homogenized, mixed with a 5-times volume of acetonitrile, and filtered. The plasma was also filtered. Drug levels were determined by mass spectrometry using an ABSciex 5500 mass spectrometer with multiple reaction monitoring. Compound 2 was detected using the mass transition 435->236.

The test system of the next data set is WT MAPT SRE RNA. In words: Fluorescent binding affinity, WT SRE RNA. The protocol: Fluorescent Binding Affinity Measurements. Binding assays were completed as previously described.^30 Briefly, the RNA of interest was folded in 1× Assay Buffer-1 (AB1: 8 mM Na2HPO4, pH 7.0, 185 mM NaCl, and 1 mM EDTA) by heating at 95° C. for 30 s followed by slowly cooling to room temperature. Bovine serum albumin (BSA) was then added to a final concentration of 40 μg/mL to afford 1× Assay Buffer-2 (AB2: 8 mM Na2HPO4, pH 7.0, 185 mM NaCl, 1 mM EDTA, and 40 μg/mL BSA). The RNA solution was serial diluted with 1×AB2. Then, compound of interest was added to the RNA solutions to a final concentration of 0.5 μM. […] Fluorescence intensity was measured using a Tecan Plate Reader (Gain: 100, Integration time: 40 μs). […] The change in fluorescence of the small molecule was calculated by its comparison to samples lacking RNA. Binding affinity was calculated using Equation 1, as previously described:^30
where I and I0 are the measured fluorescence intensity of the compound with or without RNA, respectively, Δε is the difference between the fluorescence intensity with the infinite concentration of RNA and the fluorescence intensity without RNA, [SM]0 and [RNA]0 are the concentrations of the small molecule (SM) and RNA, respectively, and Kd is the dissociation constant.

Data set [2] deals with MAPT exon 10 splicing in primary neurons from htau mice. In words: 4R/3R MAPT mRNA by RT-qPCR in primary neurons from htau mice. Type of data set: cell-based, human MAPT in htau transgenic mouse neurons. Conditions: 48 h. The protocol:
RNA Isolation and Real-Time Quantitative PCR (RT-qPCR). HeLa cells were treated as described in the Luciferase Reporter assay to Study Exon 10 Alternative Splicing. LAN5 cells were seeded in 12-well plates at 0.2×10^6 cells per well, treated with compound or ASO, and incubated for 48 h. Compound stocks prepared in DMSO and ASO stocks prepared in water were diluted in growth medium and added to cells. Total RNA was extracted from cells and analyzed via RT-qPCR to determine levels of 3R and 4R tau mRNA. In brief, the cells were washed with 1×DPBS and then lysed in the well using 300 μL of Lysis Buffer provided in a Quick-RNA MiniPrep kit (Zymo Research), which was used to extract total RNA per the manufacturer's protocol including the on-column DNase I digestion. The concentration of total RNA was measured by NanoDrop 2000 (Thermo Fisher Scientific). Only samples with OD260/OD280>1.8 were carried forward for analysis. Reverse transcription (RT) was carried out on 200 ng of total RNA using a qScript cDNA synthesis kit (QuantaBio) in a total volume of 10 μL according to the manufacturer's protocol. An Applied Biosystems QS5 384-well PCR system was used to complete qPCR reactions with Power SYBR Green Master Mix (Life Technologies), 600 nM each primer (Table S3), 20 ng of cDNA (1 μL of the RT reaction), in a total volume of 33 μL. Technical triplicates (10 μL each) were aliquoted into 384-well qPCR plates (Applied biosystems, 4483285). Subsequent qPCR analysis was performed using an Applied Biosystems QS5 384-well PCR system (software v.1.3.0). 4R/3R ratio were analyzed using ΔΔCt method using Equation 2: […]
Isolation and Treatment of Primary Neurons from Humanized tau (hTau) Transgenic Mice. All animal studies were completed as approved by the Scripps Florida Institutional Animal Care and Use Committee. […]

Regarding `COc1cc(N)ncc1CCCN(C)CCCn1cnc2c3ccccc3n(C)c2c1=O` [Compound 2, 3-(3-((3-(6-amino-4-methoxypyridin-3-yl)propyl)(methyl)amino)propyl)-5-methyl-3,5-dihydro-4H-pyrimido[5,4-b]indol-4-one], the concentration at 48 h in data set [1] (brain, read-out: brain concentration) is 2900 ± 1600 nM. For the same compound, the concentration at 48 h in data set [1] (plasma, read-out: plasma concentration) was 500 ± 300 nM. The “higher affinity for the MAPT SRE than 1” value in the data set on WT MAPT SRE RNA (2 vs 1) is ~ 6 fold. The compound also had a Kd at WT MAPT SRE RNA (WT RNA, inherent fluorescence, n=3) of 550 ± 110 nM. Also, in data set [2], the “4R/3R ratio and PSI10” value is reported as “dose dependent reduction”; the “relative potency (4R/3R ratio and PSI10)” value is recorded as “more potent than 1”.
